Experimental data reported in paper PMC6249242, “Metabolic engineering of Escherichia coli for de novo biosynthesis of vitamin B12” (Nature Communications, 2018).

Assays:
BluE = target: T1, BluE (Rhodobacter capsulatus, UniProt D5AV17); test: crude enzyme kinase assay, LC-MS of L-threonine phosphate; also in vivo HPLC; type: biochemical
T1 construct: gene RCAP_rcc02055

CobB = CobB (Rhodobacter capsulatus, UniProt O68108); test: in vitro amidation, LC-MS of HBAD; type: biochemical
purified protein = substrate: C[C@@H](OP(=O)(O)O)[C@H](N)C(=O)O; test: purified protein; details: pH 6.8 PIPES, 37 °C, 500 µM pyridoxal phosphate (standard assay), substrate taken from the assay description

CobB, sequence (O68108 whole entry): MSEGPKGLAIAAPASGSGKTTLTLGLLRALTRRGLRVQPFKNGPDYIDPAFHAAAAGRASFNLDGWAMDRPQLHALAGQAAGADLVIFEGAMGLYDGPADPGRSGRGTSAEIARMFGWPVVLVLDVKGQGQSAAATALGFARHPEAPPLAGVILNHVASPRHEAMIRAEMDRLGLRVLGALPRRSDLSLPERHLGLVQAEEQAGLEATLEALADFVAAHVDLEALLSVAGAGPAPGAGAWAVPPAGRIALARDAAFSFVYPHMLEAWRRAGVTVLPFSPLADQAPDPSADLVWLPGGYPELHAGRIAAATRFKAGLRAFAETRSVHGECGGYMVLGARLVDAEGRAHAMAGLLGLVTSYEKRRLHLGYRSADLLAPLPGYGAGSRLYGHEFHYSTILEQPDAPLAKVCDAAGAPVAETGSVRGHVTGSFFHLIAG
T1 sequence (D5AV17 entry or part of it): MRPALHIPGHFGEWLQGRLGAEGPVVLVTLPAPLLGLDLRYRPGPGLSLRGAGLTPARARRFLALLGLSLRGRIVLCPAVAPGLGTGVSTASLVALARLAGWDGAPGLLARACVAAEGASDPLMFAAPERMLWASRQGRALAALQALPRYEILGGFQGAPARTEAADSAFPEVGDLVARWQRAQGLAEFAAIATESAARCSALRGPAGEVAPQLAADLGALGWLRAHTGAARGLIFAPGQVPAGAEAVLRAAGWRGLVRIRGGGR

## C[C@@H](O)[C@H](N)C(=O)O [L-threonine]
BluE
  crude enzyme kinase assay, LC-MS of L-threonine phosphate; also in vivo HPLC: crude BluE activity was confirmed via an in vitro assay

## C/C1=C2N=C(/C=C3\N/C(=C(/C)C4=NC(C)(C5N=C1C(C)(CCC(=O)O)C5CC(=O)O)C(C)(CC(=O)O)C4CCC(=O)O)C(C)(CC(=O)O)C3CCC(=O)O)C(C)(C)C/2CCC(=O)O (stereo not drawn) [hydrogenobyrinic acid]
CobB
  in vitro amidation, LC-MS of HBAD: it was completely converted to HBAD by CobB enzyme from R. capsulatus in vitro

B1: RcCobC (Rhodobacter capsulatus SB 1003) (protein)
chain: MRDHGGNSDAARAQYGGEDWIDLSTGINRQPWPVPDLPAHVWTDLPTATAKAALLDAAAAAFGTPAPGVALAGAQQAIQLIPRLWAPGRARVLGPTYNEHAAALRAAGWQVEEVSTLGALAGADLAVVVNPNNPDGQRHPAAALRALSLQVGRLVVDESFADASPAASVTAKASRRMLVLRSFGKFYGLAGLRLGFVFADAATVAALSEMAGPWPVSGPALEIGRRALLDRNWAMATALRLGAETMRMDALAARAGWRLVGGTALFRTYATPDAAAAQDHLARARIWSRVFPYAADWLRLGLPGNESEWMRLEKALTNEL
Purified protein
  Km: 1890 µM
